Results reported in ChEMBL document CHEMBL1133823, “Antiviral drug design: computational analyses of the effects of the L100I mutation for HIV-RT on the binding of NNRTIs” (Bioorg Med Chem Lett, 2001).
Values joined by “and” are separate entries in the source; they are usually repeats but may differ in a detail not shown here. Equal values may be shown once.

Assays:
[1] = molecular target: Human immunodeficiency virus type 1 reverse transcriptase (Human immunodeficiency virus 1, UniProt Q72547); experiment: Effective concentration required against wild type HIV-1 reverse transcriptase
[2] = molecular target: Human immunodeficiency virus type 1 reverse transcriptase (Human immunodeficiency virus 1, UniProt Q72547, L100I); experiment: Effective concentration required against L100I mutant HIV-1 reverse transcriptase
[3] = Fold resistance (L100I/ WT) was determined
[4] = Fold resistance (L100I/ WT) (as per ref 8 in the article)
[5] = Fold resistance (L100I/ WT) (as per ref 12 in the article)
[6] = Fold resistance (L100I/ WT) (as per ref 7 in the article)
[7] = Fold resistance (L100I/ WT) (as per ref 6 in the article)
[8] = Fold resistance (L100I/ WT) (as per ref 10 in the article)

SMILES	EC50 [1] [nM]	EC50 [2] [nM]	FR [3]	FR [4]	FR [5]	FR [6]	FR [7]	FR [8]
CC(C)=CCN1Cc2cc(Cl)cc3[nH]c(=S)n(c23)C[C@@H]1C	60	5600	93.3	–	–	–	–	–
Cc1ccnc2c1NC(=O)c1cccnc1N2C1CC1	–	–	–	12.7	5	2.1	0.6	–
O=C1Nc2ccc(Cl)cc2[C@@](C#CC2CC2)(C(F)(F)F)O1	–	–	–	–	–	–	–	5.9 and 8.6
CC(C)=CCOc1cc(NC(=S)c2ccoc2C)ccc1Cl [UC 781]	9	24	2.7	–	–	–	–	–
CCOCn1c(Cc2ccccc2)c(C(C)C)c(=O)[nH]c1=O [EMIVIRINE]	2	20	10	–	–	–	–	–
